Reference: patent publication US20030125283A1, “Therapy of proliferative disorders by direct irradiation of cell nuclei with tritiated nuclear targetting agents” (priority 2002, published 2003)
Blank lines part the entries; values can stand above or below the molecule they belong to.

What was measured:
[1] = test system: 4047 colon cancer cells, BT-20 and MCF-7 breast cancer cell lines; assay: Killing of tumor cells in vitro, cell counts and trypan blue viability; assay type: cell-based, rat (4047), human (BT-20
Description: In-vitro experiments were performed using cultured 4047 colon cancer cells as described in Gatenby, R A and Taylor D D (1990) Cancer Res. 50: 7997-8001. 4047 cells (2×10^4) were placed in each well of a 6-well plate and incubated overnight in 1 ml of RPMI-1640 media with 10% fetal bovine serum (FBS). The cells were divided into 4 groups as follows:
Group 4: incubated in unlabelled thymidine at concentrations 1, 2, 3, and 4 mM (so that concentration of thymidine was identical to that of the labeled thymidine in Group 3).
Each group was incubated for 24 hours and then washed 3 times in sterile physiologic saline (PBS). One milliliter of unlabelled media was added and the cells incubated for an additional 48 hours. Subsequently, the cells were washed with PBS, lifted with trypsin, and counted with a hematocytometer. Percent cell viability was determined by exclusion of trypan blue. All measurements were performed in triplicate. Once a dose-response curve was established in the 4047 cell line, identical experiments were conducted with the BT-20 and MCF-7 breast cancer cell lines.

BT-20 tumor xenografts = assay: Reduction in tumor volume in the half-life study (Example 7); assay type: in vivo, Nu/Nu female nude mice; details: each treatment subgroup, intratumoral 4 to 50 μCi/g tumor
Description: BT-20 tumor cells (10 million cells in 0.2 ml PBS) are inoculated into the right flank of each mouse as in Example 4 above. The tumors are grown to volumes of 300-500 mm^3 over the course of 3-4 weeks.
After tumors in all mice have reached the required 300-500 mm^3 volume, each group of 60 is divided into ten subgroups of six animals each.
Reduction in tumor volume is estimated as in Example 4 for each treatment subgroup over the course of the experiment. The data is analyzed by calculating the percentage of tumor reduction as in Example 4. The error in this measurement is determined from the measured standard deviation and the standard formula for calculating the error for a ratio given above in Equation 1. Systemic toxicity is not directly measured, but is monitored as described above in Example 4.

[2] = test system: Human BT-20 breast cancer tumors; assay: Preliminary in vivo dose-response curve, single intratumoral injections (Example 8); set-up: species or system Nu/Nu female nude mice; details: single intratumoral injection; theoretical
Description: Six experimental groups of 18 4-6 week old Nu/Nu female nude mice (Charles River Laboratory, Wilmington, Mass.) are used. In each of the six groups an additional group of 6 mice serves as an uninoculated control. Thus the total number of experimental mice is 108 and total number of uninoculated control mice is 36.
Each experimental group is then divided into two subgroups: one treatment subgroup of 12 mice and one untreated (but inoculated) control subgroup of six mice. […] Because the tumors have variable growth rates, subgroups are chosen such that the mean tumor volume and standard deviation are similar for each subgroup. […]
The mice are monitored daily and the tumors measured daily by microcaliper for a minimum of 3 weeks or until tumor re-growth begins. Tumor volumes are calculated as in Example 2. Three daily tumor volumes are measured for the first group so that the error in the volume measurement can be determined as in Example 4. The mean volumes and standard deviations are calculated and growth rate curves are monitored during the experiment. The data are expressed as percent difference of the tumor volume at any given time point to its pre-injection volume.
Tumor volume data is analyzed as described above in the in Example 4 by calculating percent tumor reduction and initial tumor volume. Systemic toxicity is not directly measured, but is monitored as described above in Example 4. […]

[3] = test system: BT20 human breast cancer tumors; assay: Efficacy of a multiple dose regimen, intratumoral versus i.v. (Example 9); assay type: in vivo, female nude mice
Description: To accomplish this, the superposition method of Sharget and Yu, supra, is used to extend the two compartment pharmacokinetic model presented in Example 6 from the single dose to the multidose case. […] Using the superposition method, the maximum and minimum of the multi-dose regimen can be averaged together to give an estimate of the mean concentration in the tumor during multiple injections (Sharget and Yu, supra).
This dose regimen is tested experimentally as follows.
60 4-6 weeks old female nude mice in 2 groups of 30 mice are used. Each group of 30 mice is further divided into two subgroups (10 control mice and 20 treatment mice). As before, the treatment mice will be divided into subgroups that consist of similar distribution of tumor volumes. In each treatment subgroup, 10×10^6 BT20 human breast cancer cells are inoculated subcutaneously in flanks of the mice as in Example 4. […] Tumors are grown to 300-500 mm^3 in volume.
The mice from one treatment subgroup receive an intratumoral injection of 16 μCi/20 μl normal saline (a dose of 32 μCi/gram of tumor). The dose is repeated every 7 days for a total of 3 doses.

[4] = mouse, in vivo
Description: In the treatment and control groups, 10×10^6 BT-20 human breast cancer cells are inoculated subcutaneously into the flanks of the mice. Animal weights are recorded daily and animals are closely monitored for signs of illness. Approximate tumor volumes are measured every other day using calipers to measure the height (H), width (W), and length (L) of each tumor. Tumor volumes are calculated according to the formula for volume of an ellipsoid V=πHWL/6. Tumors grow to 300-500 mm^3 in approximately 3-4 weeks after inoculation. A set of 6 measurements per day is made on a single tumor in the control group on one day of each week to determine the standard deviation versus volume in the volume measurements.
Tumor growth is monitored for a total of 4 weeks, whereupon the mice are sacrificed and the tumors and other tissue are harvested.
Lines are drawn along the anterior-posterior length of the harvested tumors. In addition, the top, left and right of the harvested tumors is marked. […] A portion of the sample in is placed in Hionic-Fluor LSC cocktail and the radioactivity counted in a scintillation counter. […]
Ten to fifteen microliters of the dissolved tissue or is spotted on a silica gel TLC plate, and the plate is placed in a chromatography chamber containing ˜200 ml of eluant so the dissolved tissue sample is just above the eluant surface. […] The radioactivity is counted in the scintillation counter. […]

[5] = Caro, supra; cited from earlier work

SMILES: Cc1cn([C@H]2C[C@H](O)[C@@H](CO)O2)c(=O)[nH]c1=O [Unlabelled thymidine, thymidine, reference compound]
- effect on tumor growth ([1]; unlabelled thymidine 1, 2, 3, and 4 mM, 24 hours incubation, then 48 hours in unlabelled media): no effect on tumor growth

- share of injected dose retained in the tumor [4]: about 10%
SMILES: Cc1cn([C@H]2C[C@H](O)[C@@H](CO)O2)c(=O)[nH]c1=O [^3H-thymidine]
- antitumor effect ([1]; 0.1 μCi/ml (concentration used only with 4047 cells)): significant antitumor effect
- viable tumor cells identified ([1]; populations exposed to 1.0 μCi/ml or greater, in most experiments): few viable tumor cells
- tumor volume (BT-20 tumor xenografts): significant reduction in tumor volume
- ED90, minimal effective dose for eradicating tumors in 90% of the treated mice [2]: 16 μCi/g tumor
- r, tumor regression ([3]; i.v. injection 16 μCi (~800 μCi/kg body wt.) once a week for three weeks, after three doses): approximately 0.8
- r, tumor regression ([3]; intratumoral 16 μCi/20 μl saline (32 μCi/gram of tumor) every 7 days, 3 doses): approximately zero

SMILES: [3H]O[3H] [^3H-water, reference compound]
- cytotoxicity ([1]; 0.1-3.0 μCi/ml media, 24 hours incubation, then 48 hours in unlabelled media, ^3H-water effect particularly above 1 μCi/ml, ^3H-thymidine compared with ^3H-water at each dose (p<<0.01)): slight cytotoxicity

SMILES: [3H] [tritium]
- effective biological half-life [5]: approximately 12 days
